What was measured:
Format in all cases: in vivo
[1] = tested on: soybean (Glycine max); assay: Test C preemergence, soybean; conditions: 0 is no effect, 100 is complete control
Method in brief: (§1)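 Herbicidal effect was estimated visually on a 0–100 scale 10 or 12 days after spraying. Formulation: non-phytotoxic solvent mixture with surfactant. Timing: directed soil spray after sowing, or postemergence on seedlings bearing one or two leaves.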

[2] = tested on: ragweed (common ragweed, Ambrosia artemisiifolia); assay: Test C postemergence, ragweed; conditions: for Ragweed plant response rating: visual injury, 0 to 100 scale (0 no effect, 100 complete control); for Plant response rating (0 to 100 scale), Ragweed: 0 is no effect, 100 is complete control
Method in brief: as §1

[3] = tested on: wheat (Triticum aestivum); assay: Test C postemergence, wheat; conditions: for Wheat plant response rating: visual injury, 0 to 100 scale (0 no effect, 100 complete control); for Plant response rating (0 to 100 scale), Wheat: 0 is no effect, 100 is complete control
Method in brief: as §1

[4] = tested on: ryegrass, Italian (Italian ryegrass, Lolium multiflorum); assay: Test C preemergence, Italian ryegrass; conditions: 0 is no effect, 100 is complete control
Method in brief: as §1

[5] = tested on: corn (Zea mays); assay: Test C postemergence, corn; conditions: for Corn plant response rating: visual injury, 0 to 100 scale (0 no effect, 100 complete control); for Plant response rating (0 to 100 scale), Corn: 0 is no effect, 100 is complete control
[6] = tested on: horseweed (Erigeron canadensis); assay: Test C postemergence, horseweed; conditions: for Horseweed plant response rating: visual injury, 0 to 100 scale (0 no effect, 100 complete control); for Plant response rating (0 to 100 scale), Horseweed: 0 is no effect, 100 is complete control
Method in brief: as §1

[7] = tested on: sedge, umbrella (small-flower umbrella sedge, Cyperus difformis); assay: Test D flooded paddy test, umbrella sedge; set-up: key: 0 = no effect, 100 = complete control; conditions: 250 g ai/ha, Flood; applied to paddy water at 2-leaf stage; visual rating after 13 days; scale 0 (no effect) to 100 (complete control)
Method in brief: (§2)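 Visual response scores run 0 (no effect) to 100 (complete control), judged against controls 13 days after treatment. Compounds were added to paddy water 3 cm deep over soil, around plants at the 2-leaf stage kept in a greenhouse.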

[8] = tested on: pigweed, palmer (palmer amaranth, Amaranthus palmeri); assay: Test C preemergence, palmer amaranth; conditions: 0 is no effect, 100 is complete control
Method in brief: as §1

[9] = tested on: rice (Oryza sativa); assay: Test D flooded paddy test, rice; set-up: key: 0 = no effect, 100 = complete control; conditions: 250 g ai/ha, Flood; applied to paddy water at 2-leaf stage; visual rating after 13 days; scale 0 (no effect) to 100 (complete control)
Method in brief: as §2

For `CCOC(=O)N(c1cc(N2CCC(OC3CC3)C2=O)c(C)cc1C)S(=O)(=O)C(F)(F)F` (stereo not shown) [Compound 19], the “Plant response rating (0 to 100 scale), Soybean” value (shortened to “Plant response rating … Soybean”) ([1]; 31 g ai/ha Preemergence) was 30, the “Plant response rating … Soybean” value ([1]; 125 g ai/ha Preemergence) was 90 and the “Ragweed plant response rating” value ([2]; 31 g ai/ha Postemergence) was 60. For the same compound, the “Plant response rating (0 to 100 scale), Ragweed” value ([2]; 125 g ai/ha Postemergence) was 90, the “Wheat plant response rating” value ([3]; 31 g ai/ha Postemergence) was 0 and the “Plant response rating (0 to 100 scale), Wheat” value ([3]; 125 g ai/ha Postemergence) was 10. For the same compound, the “Plant response rating (0 to 100 scale), Ryegrass, Italian” value (“Plant response rating … Italian” below) ([4]; 31 g ai/ha Preemergence) was 0, the “Plant response rating … Italian” value ([4]; 125 g ai/ha Preemergence) was 0 and the “Corn plant response rating” value ([5]; 31 g ai/ha Postemergence) was 0. For the same compound, the “Plant response rating (0 to 100 scale), Corn” value ([5]; 125 g ai/ha Postemergence) was 20, the “Horseweed plant response rating” value ([6]; 31 g ai/ha Postemergence) was 10 and the “Plant response rating (0 to 100 scale), Horseweed” value ([6]; 125 g ai/ha Postemergence) was 30. For the same compound, the “Plant response rating, Sedge, Umbrella” value [7] was 0, the “Plant response rating (0 to 100 scale), Pigweed, Palmer” value (“Plant response rating … Palmer” below) ([8]; 31 g ai/ha Preemergence) was 20 and the “Plant response rating … Palmer” value ([8]; 125 g ai/ha Preemergence) was 60. For the same compound, the “Plant response rating, Rice” value [9] was 0.

In the case of `Cc1c(N2CCC(OC3CCC3)C2=O)cc(N(C(=O)OCC(C)C)S(=O)(=O)C(F)(F)F)c(C)c1C` (stereo not shown) [Compound 48], the “Plant response rating … Soybean” value ([1]; 31 g ai/ha Preemergence) is reported as 30, the “Plant response rating … Soybean” value ([1]; 125 g ai/ha Preemergence) is reported as 70 and the “Ragweed plant response rating” value ([2]; 31 g ai/ha Postemergence) is reported as 30. The “Ragweed plant response rating” value ([2]; 125 g ai/ha Postemergence) was 80, the “Wheat plant response rating” value ([3]; 31 g ai/ha Postemergence) was 30 and the “Wheat plant response rating” value ([3]; 125 g ai/ha Postemergence) was 70. For the same compound, the “Plant response rating … Italian” value ([4]; 31 g ai/ha Preemergence) was 60, the “Plant response rating … Italian” value ([4]; 125 g ai/ha Preemergence) was 100 and the “Corn plant response rating” value ([5]; 31 g ai/ha Postemergence) was 0. For the same compound, the “Corn plant response rating” value ([5]; 125 g ai/ha Postemergence) was 50, the “Horseweed plant response rating” value ([6]; 31 g ai/ha Postemergence) was 70 and the “Horseweed plant response rating” value ([6]; 125 g ai/ha Postemergence) was 90. For the same compound, the “Plant response rating, Sedge, Umbrella” value [7] was 90, the “Plant response rating … Palmer” value ([8]; 31 g ai/ha Preemergence) was 100 and the “Plant response rating … Palmer” value ([8]; 125 g ai/ha Preemergence) was 100. The “Plant response rating, Rice” value [9] was 25.

With `Cc1cc(C)c(N(C(=O)OCC(C)C)S(=O)(=O)C(F)(F)F)cc1N1CCC(OC2CC2)C1=O` (stereo not shown) [Compound 21] the “Plant response rating … Soybean” value ([1]; 31 g ai/ha Preemergence) was 0, the “Plant response rating … Soybean” value ([1]; 125 g ai/ha Preemergence) was 60 and the “Ragweed plant response rating” value ([2]; 31 g ai/ha Postemergence) was 80. For the same compound, the “Plant response rating (0 to 100 scale), Ragweed” value ([2]; 125 g ai/ha Postemergence) was 90, the “Wheat plant response rating” value ([3]; 31 g ai/ha Postemergence) was 10 and the “Plant response rating (0 to 100 scale), Wheat” value ([3]; 125 g ai/ha Postemergence) was 50. For the same compound, the “Plant response rating … Italian” value ([4]; 31 g ai/ha Preemergence) was 70, the “Plant response rating … Italian” value ([4]; 125 g ai/ha Preemergence) was 100 and the “Corn plant response rating” value ([5]; 31 g ai/ha Postemergence) was 90. For the same compound, the “Plant response rating (0 to 100 scale), Corn” value ([5]; 125 g ai/ha Postemergence) was 90, the “Horseweed plant response rating” value ([6]; 31 g ai/ha Postemergence) was 60 and the “Plant response rating (0 to 100 scale), Horseweed” value ([6]; 125 g ai/ha Postemergence) was 90. For the same compound, the “Plant response rating, Sedge, Umbrella” value [7] was 98, the “Plant response rating … Palmer” value ([8]; 31 g ai/ha Preemergence) was 100 and the “Plant response rating … Palmer” value ([8]; 125 g ai/ha Preemergence) was 100. The “Plant response rating, Rice” value [9] was 85.

For `Cc1cc(C)c(N(COC(=O)C(C)(C)C)S(=O)(=O)C(F)(F)F)cc1N1CCC(OCC2CCC2)C1=O` (stereo not shown) [Compound 56], the “Plant response rating … Soybean” value ([1]; 31 g ai/ha Preemergence) was 0, the “Plant response rating … Soybean” value ([1]; 125 g ai/ha Preemergence) was 30 and the “Ragweed plant response rating” value ([2]; 31 g ai/ha Postemergence) was 20. The “Ragweed plant response rating” value ([2]; 125 g ai/ha Postemergence) was 60, the “Wheat plant response rating” value ([3]; 31 g ai/ha Postemergence) was 0 and the “Wheat plant response rating” value ([3]; 125 g ai/ha Postemergence) was 70. The “Plant response rating … Italian” value ([4]; 31 g ai/ha Preemergence) was 30, the “Plant response rating … Italian” value ([4]; 125 g ai/ha Preemergence) was 80 and the “Corn plant response rating” value ([5]; 31 g ai/ha Postemergence) was 0. For the same compound, the “Corn plant response rating” value ([5]; 125 g ai/ha Postemergence) was 30, the “Horseweed plant response rating” value ([6]; 31 g ai/ha Postemergence) was 20 and the “Horseweed plant response rating” value ([6]; 125 g ai/ha Postemergence) was 80. The “Plant response rating, Sedge, Umbrella” value [7] was 95, the “Plant response rating … Palmer” value ([8]; 31 g ai/ha Preemergence) was 10 and the “Plant response rating … Palmer” value ([8]; 125 g ai/ha Preemergence) was 90. The “Plant response rating, Rice” value [9] was 0.

Source: patent publication US20240158348A1, “HERBICIDAL CYCLIC AMIDES N-SUBSTITUTED WITH A HALOALKYLSULFONYLANILIDE GROUP” (FMC Corporation, priority 2021, published 2024)
